In ChEMBL document CHEMBL1201862, “PubChem BioAssay data set” (2004):
Blank lines part the entries; values can stand above or below the compound they belong to. The source made the active and inactive calls.

Columns and labels:
[1] = target: T1, High affinity choline transporter 1 (Homo sapiens, UniProt Q9GZV3); experiment: CHT inhibitors, dose response, cell-based, 5-point CRC, membrane potential dye (AID 504840); assay type: functional
T1 sequence (Q9GZV3 whole entry): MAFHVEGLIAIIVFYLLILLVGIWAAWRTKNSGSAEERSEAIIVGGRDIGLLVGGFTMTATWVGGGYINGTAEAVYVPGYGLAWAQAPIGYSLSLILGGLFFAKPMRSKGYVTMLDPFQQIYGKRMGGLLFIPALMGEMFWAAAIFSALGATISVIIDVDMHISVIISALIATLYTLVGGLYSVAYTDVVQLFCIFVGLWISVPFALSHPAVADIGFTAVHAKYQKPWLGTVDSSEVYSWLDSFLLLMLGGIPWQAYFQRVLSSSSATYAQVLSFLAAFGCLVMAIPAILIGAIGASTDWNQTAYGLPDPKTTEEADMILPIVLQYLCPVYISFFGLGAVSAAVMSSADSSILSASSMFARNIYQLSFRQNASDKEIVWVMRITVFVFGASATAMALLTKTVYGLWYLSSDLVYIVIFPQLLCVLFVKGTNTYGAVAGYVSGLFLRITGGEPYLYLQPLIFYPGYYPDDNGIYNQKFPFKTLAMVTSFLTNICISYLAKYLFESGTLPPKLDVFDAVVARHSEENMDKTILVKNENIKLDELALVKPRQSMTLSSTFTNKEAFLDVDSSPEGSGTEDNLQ

[2] = target: T1, High affinity choline transporter 1; experiment: CHT inhibitors, dose response, cell-based, 10-point CRC, membrane potential dye (AID 588401); assay type: functional;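 note: membrane potential dye fluorescence of choline-evoked depolarization via CHT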
[3] = target: Ras and Rab interactor 1/Tyrosine-protein kinase ABL1 (Homo sapiens, UniProt P00519+Q13671); assay type: functional;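 note: biochemical TR-FRET dose-response test measuring inhibition of binding between Rin1 and Abl proteins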
[4] = target: T2, Cysteine protease ATG4B (Homo sapiens, UniProt Q9Y4P1); assay type: functional;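 note: Fluorescence-based dose-response confirmation assay measuring inhibition of ATG4B activity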
T2 sequence (Q9Y4P1 whole entry): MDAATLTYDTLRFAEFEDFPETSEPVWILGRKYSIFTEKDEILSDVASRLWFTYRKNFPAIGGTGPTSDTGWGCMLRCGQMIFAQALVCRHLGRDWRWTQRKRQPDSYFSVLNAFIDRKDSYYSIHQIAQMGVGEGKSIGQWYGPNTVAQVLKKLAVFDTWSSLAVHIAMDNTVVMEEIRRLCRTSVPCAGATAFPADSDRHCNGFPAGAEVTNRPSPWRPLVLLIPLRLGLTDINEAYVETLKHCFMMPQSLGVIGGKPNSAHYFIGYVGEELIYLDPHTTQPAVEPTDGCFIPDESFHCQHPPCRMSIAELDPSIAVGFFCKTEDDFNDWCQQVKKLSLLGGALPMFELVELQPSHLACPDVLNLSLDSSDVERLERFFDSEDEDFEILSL

[5] = target: Phospholipase A2 (Homo sapiens, UniProt P04054); assay type: functional;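 note: confirmatory dose-response counterscreen on phospholipase A2, testing hits that came from an ultra-high-throughput screen for ATG4B inhibitors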
[6] = target: Tyrosine-protein phosphatase non-receptor type 5 (Homo sapiens, UniProt P54829); experiment: STEP phosphatase inhibitors, confirmation, biochemical, fluorescence intensity, uHTS hits (AID 602372); assay type: functional; details: read-out: IC50_Mean
[7] = target: Dual specificity protein phosphatase 3 (Homo sapiens, UniProt P51452); experiment: VHR phosphatase inhibition, dose response, selectivity assay for STEP inhibitor project, biochemical (AID 602374); assay type: functional; details: read-out: IC50_Mean
[8] = target: Tyrosine-protein phosphatase non-receptor type 11 (Homo sapiens, UniProt Q06124); experiment: SHP2 phosphatase inhibition, dose response, selectivity assay for STEP inhibitor project, biochemical (AID 602367); assay type: functional; details: read-out: IC50_Mean
[9] = target: T3, Fatty acid synthase (Homo sapiens, UniProt P49327); experiment: FAS thioesterase domain inhibitors, dose response, biochemical, endpoint fluorescence intensity, uHTS hits (AID 624327); assay type: functional;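 note: fluorescence from hydrolysis of an O-methyl fluorescein acyl ester substrate by the enzyme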
[10] = target: T3, Fatty acid synthase; experiment: FAS thioesterase domain inhibitors, dose response, biochemical, kinetic fluorescence intensity (AID 624326); assay type: functional;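 note: rate of fluorescence rise from hydrolysis of a fluorogenic O-methyl fluorescein ester substrate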
[11] = miR-122 activators in hepatoma reporter cells, dose response, cell-based, Huh7 psiCHECK-miR122, Renilla luciferase, cherry-picked (AID 651956); assay type: functional;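 note: huh7 hepatoma cells stably carrying a psiCHECK-2 miR-122 sensor plasmid; renilla luciferase signal reporting endogenous miR-122 activity after 48 h compound exposure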
[12] = inhibitors of CMV-promoter luciferase reporter, dose response, counter-screen for Pax8 inhibitor project, cell-based, HEK293, luminescence, dry powder (AID 743020); assay type: functional
[13] = A549 cell cytotoxicity, dose response, cytotoxicity control, plate reader, cherry-pick, antagonist series (AID 743412); assay type: functional, cell-based
[14] = MC4R antagonists, dose response, counter-screen for LGR2 antagonist project, cell-based, plate reader, cherry pick (AID 743444); assay type: functional;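 note: transfected HEK 293 cells stimulated with alpha-MSH peptide; potency of inhibitors of the alpha-MSH evoked signal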
[15] = HepG2 cell cytotoxicity, dose response, cytotoxicity control, plate reader, cherry-pick, antagonist series (AID 743416); assay type: functional, cell-based
[16] = LGR2 antagonists, dose response, cell-based, HEK293, CRE-luciferase reporter, cherry pick, set 2 (AID 743343); assay type: functional;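 note: transfected cells were stimulated with diluted bursicon conditioned medium after compound addition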
[17] = HEK293 cell cytotoxicity, dose response, cytotoxicity control, plate reader, cherry-picked samples (AID 743446); assay type: functional, cell-based
[18] = target: Paired box protein Pax-8 (Homo sapiens, UniProt Q06710); experiment: inhibitors of PAX8-driven TPO luciferase reporter, dose response, RMG-I cells, cherry-pick (AID 687027); assay type: functional, cell-based;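 note: luciferase reporter driven by Pax8 target thyroperoxidase promoter measured by SteadyGlo luminescence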
Chain of Paired box protein Pax-8 (Q06710 whole entry): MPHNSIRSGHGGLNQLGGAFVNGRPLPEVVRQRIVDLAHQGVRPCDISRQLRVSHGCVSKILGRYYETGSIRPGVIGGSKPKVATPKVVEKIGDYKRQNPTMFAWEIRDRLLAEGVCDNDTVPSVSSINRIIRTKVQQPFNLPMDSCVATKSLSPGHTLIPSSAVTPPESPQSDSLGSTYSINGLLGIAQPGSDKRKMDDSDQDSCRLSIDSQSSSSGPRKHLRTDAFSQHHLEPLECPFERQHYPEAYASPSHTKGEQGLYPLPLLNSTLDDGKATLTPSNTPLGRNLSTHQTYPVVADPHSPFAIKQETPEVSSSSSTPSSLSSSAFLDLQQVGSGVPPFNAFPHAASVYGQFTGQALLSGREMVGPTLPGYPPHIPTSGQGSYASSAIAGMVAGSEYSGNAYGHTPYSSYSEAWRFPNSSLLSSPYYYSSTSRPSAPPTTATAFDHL

Chain of Phospholipase A2 (P04054 whole entry): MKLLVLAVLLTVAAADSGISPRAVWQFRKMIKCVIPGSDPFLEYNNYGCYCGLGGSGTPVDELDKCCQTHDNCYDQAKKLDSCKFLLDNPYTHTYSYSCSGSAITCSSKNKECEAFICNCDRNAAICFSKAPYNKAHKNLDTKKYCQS
T3 sequence (P49327 whole entry, the tested form may be a part): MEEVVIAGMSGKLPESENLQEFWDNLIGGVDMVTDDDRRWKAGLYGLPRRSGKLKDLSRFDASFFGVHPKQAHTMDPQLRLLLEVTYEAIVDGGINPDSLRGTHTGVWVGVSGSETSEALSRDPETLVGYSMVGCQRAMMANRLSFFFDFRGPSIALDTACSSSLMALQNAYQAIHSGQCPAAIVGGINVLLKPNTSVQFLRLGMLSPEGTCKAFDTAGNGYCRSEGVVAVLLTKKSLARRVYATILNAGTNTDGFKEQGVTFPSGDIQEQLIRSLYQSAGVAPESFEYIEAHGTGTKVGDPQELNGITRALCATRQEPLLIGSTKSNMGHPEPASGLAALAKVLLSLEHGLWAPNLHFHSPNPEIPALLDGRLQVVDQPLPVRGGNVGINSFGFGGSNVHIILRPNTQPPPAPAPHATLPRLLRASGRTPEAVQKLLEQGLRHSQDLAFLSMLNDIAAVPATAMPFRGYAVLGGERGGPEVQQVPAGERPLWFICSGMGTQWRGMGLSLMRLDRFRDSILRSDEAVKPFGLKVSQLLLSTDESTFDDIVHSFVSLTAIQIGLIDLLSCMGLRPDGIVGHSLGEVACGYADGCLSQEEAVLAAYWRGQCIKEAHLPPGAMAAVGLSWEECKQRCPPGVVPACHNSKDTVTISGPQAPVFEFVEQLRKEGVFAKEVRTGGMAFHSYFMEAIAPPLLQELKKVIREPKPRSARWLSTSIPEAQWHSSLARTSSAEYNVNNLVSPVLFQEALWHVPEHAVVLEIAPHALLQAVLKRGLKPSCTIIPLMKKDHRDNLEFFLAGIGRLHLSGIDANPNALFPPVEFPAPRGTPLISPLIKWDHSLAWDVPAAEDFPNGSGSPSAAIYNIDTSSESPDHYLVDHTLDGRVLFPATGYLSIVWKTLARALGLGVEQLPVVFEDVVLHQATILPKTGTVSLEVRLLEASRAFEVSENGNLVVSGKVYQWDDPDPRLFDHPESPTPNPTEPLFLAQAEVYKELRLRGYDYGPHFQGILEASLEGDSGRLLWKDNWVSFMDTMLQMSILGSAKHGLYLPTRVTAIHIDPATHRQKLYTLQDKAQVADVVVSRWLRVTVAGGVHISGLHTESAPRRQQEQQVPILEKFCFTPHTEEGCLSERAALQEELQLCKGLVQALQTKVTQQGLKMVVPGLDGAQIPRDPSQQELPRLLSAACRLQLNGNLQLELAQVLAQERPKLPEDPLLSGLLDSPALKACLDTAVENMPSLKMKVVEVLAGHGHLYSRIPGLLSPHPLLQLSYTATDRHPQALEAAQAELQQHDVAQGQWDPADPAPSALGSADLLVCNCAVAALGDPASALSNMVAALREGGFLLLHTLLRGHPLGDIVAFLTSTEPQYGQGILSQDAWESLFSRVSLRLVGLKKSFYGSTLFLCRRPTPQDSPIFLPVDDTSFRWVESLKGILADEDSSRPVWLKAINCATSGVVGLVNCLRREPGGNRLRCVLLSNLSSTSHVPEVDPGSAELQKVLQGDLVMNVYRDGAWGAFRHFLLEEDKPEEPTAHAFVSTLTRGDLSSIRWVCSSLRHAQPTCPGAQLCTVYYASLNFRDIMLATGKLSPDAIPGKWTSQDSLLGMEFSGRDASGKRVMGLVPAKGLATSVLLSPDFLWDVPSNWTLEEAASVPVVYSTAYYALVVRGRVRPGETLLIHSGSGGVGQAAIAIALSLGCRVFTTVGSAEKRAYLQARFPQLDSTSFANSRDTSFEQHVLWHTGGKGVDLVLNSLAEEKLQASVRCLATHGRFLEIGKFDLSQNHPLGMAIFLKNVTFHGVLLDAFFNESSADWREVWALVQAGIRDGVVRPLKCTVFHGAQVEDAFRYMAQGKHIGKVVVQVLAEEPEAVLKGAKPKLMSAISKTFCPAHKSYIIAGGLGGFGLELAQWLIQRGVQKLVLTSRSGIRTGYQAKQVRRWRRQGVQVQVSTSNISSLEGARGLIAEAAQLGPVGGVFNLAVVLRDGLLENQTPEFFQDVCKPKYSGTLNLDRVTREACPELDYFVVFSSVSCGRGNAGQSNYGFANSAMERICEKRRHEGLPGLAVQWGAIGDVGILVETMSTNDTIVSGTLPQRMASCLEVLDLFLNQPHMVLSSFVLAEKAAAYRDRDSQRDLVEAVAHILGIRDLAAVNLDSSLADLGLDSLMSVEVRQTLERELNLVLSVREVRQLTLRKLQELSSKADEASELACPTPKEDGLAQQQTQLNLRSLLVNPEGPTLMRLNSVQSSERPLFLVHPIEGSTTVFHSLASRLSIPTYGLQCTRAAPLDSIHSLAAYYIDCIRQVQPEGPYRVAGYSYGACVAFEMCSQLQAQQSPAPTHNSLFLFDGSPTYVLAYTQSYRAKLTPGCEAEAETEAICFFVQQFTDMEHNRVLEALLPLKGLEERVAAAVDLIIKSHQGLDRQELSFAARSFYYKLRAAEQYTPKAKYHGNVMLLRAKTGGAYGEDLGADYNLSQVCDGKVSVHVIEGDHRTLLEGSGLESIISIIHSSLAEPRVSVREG
Chain of Ras and Rab interactor 1/Tyrosine-protein kinase ABL1 (P00519 whole entry): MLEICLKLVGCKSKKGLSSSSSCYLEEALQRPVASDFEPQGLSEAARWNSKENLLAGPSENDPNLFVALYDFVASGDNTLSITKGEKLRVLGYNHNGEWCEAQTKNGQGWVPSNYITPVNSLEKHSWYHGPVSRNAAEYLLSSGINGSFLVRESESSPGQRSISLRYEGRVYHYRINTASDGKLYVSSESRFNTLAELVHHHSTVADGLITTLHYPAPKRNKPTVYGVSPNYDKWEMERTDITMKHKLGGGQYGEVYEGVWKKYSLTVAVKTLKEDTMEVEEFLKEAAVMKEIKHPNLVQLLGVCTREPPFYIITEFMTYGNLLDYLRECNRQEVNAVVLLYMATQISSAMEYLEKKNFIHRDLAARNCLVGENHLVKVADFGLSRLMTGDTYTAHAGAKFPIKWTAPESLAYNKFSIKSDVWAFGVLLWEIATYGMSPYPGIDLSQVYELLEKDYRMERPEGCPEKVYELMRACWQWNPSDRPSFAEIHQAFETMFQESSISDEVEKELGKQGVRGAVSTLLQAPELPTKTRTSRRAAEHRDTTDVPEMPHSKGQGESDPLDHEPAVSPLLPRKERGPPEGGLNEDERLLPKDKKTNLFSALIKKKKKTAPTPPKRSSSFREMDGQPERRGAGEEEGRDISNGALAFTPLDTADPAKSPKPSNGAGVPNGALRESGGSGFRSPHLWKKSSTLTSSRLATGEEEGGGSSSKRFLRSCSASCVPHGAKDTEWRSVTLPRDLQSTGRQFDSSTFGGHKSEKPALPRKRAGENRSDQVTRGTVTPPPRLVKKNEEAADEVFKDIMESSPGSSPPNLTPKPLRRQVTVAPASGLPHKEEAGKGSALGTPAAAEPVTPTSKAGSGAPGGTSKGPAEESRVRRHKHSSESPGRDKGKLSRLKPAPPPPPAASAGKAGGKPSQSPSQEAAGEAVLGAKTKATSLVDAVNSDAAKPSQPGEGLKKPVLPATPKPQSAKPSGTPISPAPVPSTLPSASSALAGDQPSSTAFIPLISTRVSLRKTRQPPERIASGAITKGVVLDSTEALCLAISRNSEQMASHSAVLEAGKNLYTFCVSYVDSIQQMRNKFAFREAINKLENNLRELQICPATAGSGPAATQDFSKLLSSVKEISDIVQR
Chain of Ras and Rab interactor 1/Tyrosine-protein kinase ABL1 (Q13671 whole entry): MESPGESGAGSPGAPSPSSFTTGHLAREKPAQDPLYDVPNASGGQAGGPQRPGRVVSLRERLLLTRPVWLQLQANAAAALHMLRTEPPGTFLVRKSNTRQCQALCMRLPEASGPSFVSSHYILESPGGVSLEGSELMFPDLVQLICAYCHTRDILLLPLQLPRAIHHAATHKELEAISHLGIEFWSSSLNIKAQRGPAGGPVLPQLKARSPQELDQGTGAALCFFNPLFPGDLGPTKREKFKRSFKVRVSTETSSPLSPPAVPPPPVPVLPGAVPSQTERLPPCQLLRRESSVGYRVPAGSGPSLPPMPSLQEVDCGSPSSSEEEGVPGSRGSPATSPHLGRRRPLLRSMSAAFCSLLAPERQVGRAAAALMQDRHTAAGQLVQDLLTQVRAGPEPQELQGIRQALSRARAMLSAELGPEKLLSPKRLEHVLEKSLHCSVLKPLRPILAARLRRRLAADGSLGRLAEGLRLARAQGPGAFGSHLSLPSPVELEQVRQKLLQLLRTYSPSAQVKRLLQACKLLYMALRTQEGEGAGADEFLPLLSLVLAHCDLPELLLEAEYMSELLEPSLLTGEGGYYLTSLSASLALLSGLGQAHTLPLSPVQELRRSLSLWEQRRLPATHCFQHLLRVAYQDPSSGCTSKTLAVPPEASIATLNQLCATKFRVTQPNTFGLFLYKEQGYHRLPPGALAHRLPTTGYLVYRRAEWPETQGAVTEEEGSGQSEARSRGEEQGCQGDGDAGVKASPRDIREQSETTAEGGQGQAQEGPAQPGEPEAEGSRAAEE

Compound: CC(=O)OC1CC2(C)/C(=N\O)CCC2C2CCc3cc(O)ccc3C12 (stereo not drawn)
IC50 [1]: 0.953 µM (active)
IC50 [2]: 0.605 µM (active)

Compound: Cc1ccc(C2N(c3cccc(Cl)c3)C(=O)N3CCCN23)cc1 (stereo not drawn)
IC50 [3]: 11.1 µM (inactive)

Compound: Cc1ccc(NC(=O)c2ccc3nc(N4CCOCC4)sc3c2)c(Cl)c1
IC50 [6]: 17.2 µM (active)
IC50 [7]: 0.804 µM (active)
IC50 [8]: 1.97 µM (active)

Compound: COc1cc(C(=O)N/N=C/c2coc3ccc(Cl)cc3c2=O)ccc1O
IC50 [4]: 3.35 µM (active)
IC50 [5]: 16.2 µM (active)
IC50 [9]: 18.5 µM (active)
IC50 [10]: 7.45 µM (active)

Compound: COc1ccc(C#Cc2ccc3c(c2)O[C@H](CN(C)C(=O)CN2CCOCC2)[C@H](C)CN([C@H](C)CO)S3(=O)=O)cc1
AC50 [11]: 12.3 µM (active)

Compound: O=C(C[C@H]1C[C@@H]2c3cc(NS(=O)(=O)c4ccc(F)cc4)ccc3O[C@@H]2[C@@H](CO)O1)NCc1ccc(Oc2ccccc2)cc1
AC50 [12]: 40.6 µM (active)
AC50 [13]: 19.3 µM (active)
AC50 [14]: 25.6 µM (active)
AC50 [15]: 20.9 µM (active)
AC50 [16]: 26 µM (active)
AC50 [17]: 22.3 µM (active)
AC50 [18]: 8.32 µM (active)

Second part, the compound after the results:

IC50 [1]: 2.94 µM (active)
IC50 [2]: 2.77 µM (active)
Compound: CCCCC[C@H](O)/C=C/[C@@H]1[C@@H](C/C=C\CCCC(=O)O)[C@@H](O)C[C@H]1O [DINOPROST TROMETHAMINE]

IC50 [4]: 1.62 µM (active)
IC50 [5]: 1.02 µM (active)
Compound: COC(=O)c1c(NC(=O)C2Cc3ccccc3C(=O)O2)sc2c1CCCC2 (stereo not drawn)

IC50 [3]: 12.9 µM (inactive)
Compound: CC[C@]12c3[nH]c4ccc(OC)cc4c3CCN1C(=O)C(CC(=O)NCC13C[C@H]4C[C@@H](C1)C[C@@H](C3)C4)C[C@@H]2C(=O)N1CCN(C(=O)C2CC2)CC1 (stereo partly drawn)
